What was measured:
Format in all cases: cell-based
[1] = tested on: IL-8 secreted by F508del/F508del CF human airway epithelial cells; experiment: IL-8 ELISA, CF airway epithelial cell monolayers, Cytomix 24 h then Cytomix + treatment 24 h (curative); conditions: FIG. 2, 5; curative: Cytomix 24 h, then Cytomix + HA 1 mg/mL or Dexa 10^-6M 24 h; n=7 CF patients
Procedure: FIG. 2: Measurement by ELISA assay of the pro-inflammatory chemokine IL-8 secreted by F508del/F508del CF human airway epithelial cells cultured as monolayers. Airway epithelial cells were seeded in 48-wells plates and cultured until confluence was reached. Cells were then treated for 24 h with a pro-inflammatory chemokine cocktail (TNFα, IL1β and IFNγ; 10 ng/mL each) called Cytomix (Cy). Cells were thereafter treated with a combo containing Cytomix and the anti-inflammatory dexamethasone (Dexa; 10^-6M), or 15-45 kDa sodium-hyaluronic acid (HA-Na 15-45 kDa) (ARD—Pomacle—France—as prepared according to WO2004050187), 15-30 kDa sodium-hyaluronic acid (HA-Na 15-30 kDa) (Sigma Aldrich), or 30-50 kDa sodium-hyaluronic acid (HA-Na 30-50 kDa) (Sigma Aldrich) at 1 mg/mL during the following 24 h. The culture medium was finally collected and the IL-8 content was determined by ELISA assay. n=7 different F508del/F508del CF patients. p<0.001 (***); p<0.01 (**); p<0.05 (*).ns: non-significant.
FIG. 5: Measurement by ELISA assay of the pro-inflammatory chemokine IL-8 secreted by F508del/F508del CF human airway epithelial cells cultured as monolayers. Airway epithelial cells were seeded in 48-wells plates and cultured until confluence was reached. Cells were then treated for 24 h with a pro-inflammatory chemokine cocktail (TNFα, IL1β and IFNγ; 10 ng/ml each) called Cytomix (Cy). Cells were thereafter treated with a combo containing Cytomix and the anti-inflammatory dexamethasone (Dexa; 10^-6M), or 15-45 kDa sodium-hyaluronic acid (HA-Na 15-45 kDa) (ARD—Pomacle—France—as prepared according to WO2004050187), 15-45 kDa calcium-hyaluronic acid (HA-Ca 15-45 kDa; ARD), or 15-45 kDa potassium-hyaluronic acid (HA-K 15-45 kDa; ARD) at 1 mg/mL during the following 24 h. The culture medium was finally collected and the IL-8 content was determined. n=7 different F508del/F508del CF patients. p<0.001 (***); p<0.01 (**); p<0.05 (*). ns: non-significant.

[2] = tested on: IL-8 secreted by F508del/F508del CF human airway epithelial cells; experiment: IL-8 ELISA, CF airway epithelial cell monolayers, Cytomix + treatment 24 h (co-treatment); conditions: FIG. 3, 6; co-treatment: Cytomix + HA 1 mg/mL or Dexa 10^-6M 24 h; n=7 CF patients
Procedure: FIG. 3: Measurement by ELISA assay of the pro-inflammatory chemokine IL-8 secreted by F508del/F508del CF human airway epithelial cells cultured as monolayers. Airway epithelial cells were seeded in 48-wells plates and cultured until confluence was reached. Cells were then treated for 24 h with a combo containing a pro-inflammatory chemokine cocktail (TNFα, IL1β and IFNγ; 10 ng/mL each) called Cytomix (Cy) and the anti-inflammatory dexamethasone (Dexa; 10^-6M), 15-45 kDa sodium-hyaluronic acid (HA-Na 15-45 kDa) (ARD—Pomacle—France—as prepared according to WO2004050187), 15-30 kDa sodium-hyaluronic acid (HA-Na 15-30 kDa) (Sigma Aldrich), or 30-50 kDa sodium-hyaluronic acid (HA-Na 30-50 kDa) (Sigma Aldrich) at 1 mg/mL. The culture medium was then collected and the IL-8 content was determined. n=7 F508del/F508del CF patient. p<0.001 (***); p<0.01 (**); p<0.05 (*). ns: non-significant.
FIG. 6: Measurement by ELISA assay of the pro-inflammatory chemokine IL-8 secreted by F508del/F508del CF human airway epithelial cells cultured as monolayers. Airway epithelial cells were seeded in 48-wells plates and cultured until confluence was reached. Cells were then treated for 24 h with a combo containing a pro-inflammatory chemokine cocktail (TNFα, IL1β and IFNγ 10 ng/mL each) called Cytomix (Cy) and the anti-inflammatory dexamethasone (Dexa; 10^-6M), or 15-45 kDa sodium-hyaluronic acid (HA-Na 15-45 kDa) (ARD—Pomacle—France—as prepared according to WO2004050187), 15-45 kDa calcium-hyaluronic acid (HA-Ca 15-45 kDa; ARD), or 15-45 kDa potassium-hyaluronic acid (HA-K 15-45 kDa; ARD) at 1 mg/mL. The culture medium was then collected and the IL-8 content was determined. n=7 different F508del/F508del CF patients. p<0.001 (***); p<0.01 (**); p<0.05 (*). ns: non-significant.

[3] = tested on: IL-8 secreted by human COPD airway epithelial cells; experiment: IL-8 ELISA, COPD airway epithelial cell monolayers, Cytomix 24 h then Cytomix + treatment 24 h (curative); conditions: FIG. 17, 19; curative: Cytomix 24 h, then Cytomix + HA 1 mg/mL or Dexa 10^-6M 24 h; n=5 COPD patients
Procedure: FIG. 17: Measurement by ELISA assay of the pro-inflammatory chemokine IL-8 secreted human COPD airway epithelial cells cultured as monolayers. Airway epithelial cells were seeded in 48-wells plates and cultured until confluence was reached. Cells were then treated for 24 h with a pro-inflammatory chemokine cocktail (TNFα, IL1β and IFNγ 10 ng/ml each) called Cytomix (Cy). Cells were thereafter treated with a combo containing Cytomix and the anti-inflammatory dexamethasone (Dexa; 10^-6M), 15-45 kDa sodium-hyaluronic acid (HA-Na 15-45 kDa) (ARD—Pomacle—France—as prepared according to WO2004050187), 15-30 kDa sodium-hyaluronic acid (HA-Na 15-30 kDa) (Sigma Aldrich), or 30-50 kDa sodium-hyaluronic acid (HA-Na 30-50 kDa) (Sigma Aldrich) at 1 mg/mL during the following 24 h. The culture medium was finally collected and the IL-8 content was determined by ELISA assay. n=5 different COPD patients. p<0.001 (***); p<0.01 (**); p<0.05 (*). ns: non-significant.
FIG. 19: Measurement by ELISA assay of the pro-inflammatory chemokine IL-8 secreted by human COPD airway epithelial cells cultured as monolayers. Airway epithelial cells were seeded in 48-wells plates and cultured until confluence was reached. Cells were then treated for 24 h with a pro-inflammatory chemokine cocktail (TNFα, IL1β and IFNγ 10 ng/ml each) called Cytomix (Cy). Cells were thereafter treated with a combo containing Cytomix and the anti-inflammatory dexamethasone (Dexa; 10^-6M), or 15-45 kDa sodium-hyaluronic acid (HA-Na 15-45 kDa) (ARD—Pomacle—France—as prepared according to WO2004050187), 15-45 kDa calcium-hyaluronic acid (HA-Ca 15-45 kDa; ARD), or 15-45 kDa potassium hyaluronic acid (HA-K 15-45 kDa; ARD) at 1 mg/mL during the following 24 h. The culture medium was finally collected and the IL-8 content was determined. n=5 different COPD patients. p<0.001 (***); p<0.01 (**); p<0.05 (*). ns: non-significant.

15-45 kDa potassium-hyaluronic acid [HA-K 15-45 kDa]
decrease in IL-8 secretion [1]: 47.5%
decrease in IL-8 secretion [2]: 30%
decrease in IL-8 secretion [3]: 61.1%

30-50 kDa sodium-hyaluronic acid [HA-Na 30-50 kDa]
decrease in IL-8 secretion [1]: 42.2%
decrease in IL-8 secretion [2]: 30.1%
decrease in IL-8 secretion [3]: 69.5%

15-30 kDa sodium-hyaluronic acid [HA-Na 15-30 kDa]
decrease in IL-8 secretion [1]: 44.2%
decrease in IL-8 secretion [2]: 40.2%
decrease in IL-8 secretion [3]: 65%

15-45 kDa calcium-hyaluronic acid [HA-Ca 15-45 kDa]
decrease in IL-8 secretion [1]: 33.6%
decrease in IL-8 secretion [2]: 11.6%
decrease in IL-8 secretion [3]: 61.5%

C[C@@H]1C[C@H]2[C@@H]3CCC4=CC(=O)C=C[C@]4(C)[C@@]3(F)[C@@H](O)C[C@]2(C)[C@@]1(O)C(=O)CO [Dexamethasone, dexamethasone, reference compound]
decrease in IL-8 secretion [1]: 30.9%
decrease in IL-8 secretion [2]: 21.4%
decrease in IL-8 secretion [3]: 68.8%

15-45 kDa sodium-hyaluronic acid [HA-Na 15-45 kDa]
decrease in IL-8 secretion [1]: 32.1%
decrease in IL-8 secretion [2]: 33.9%
decrease in IL-8 secretion [3]: 60.2%
